Values joined by “and” are separate entries in the source; they are usually repeats but may differ in a detail not shown here. Equal values may be shown once.
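Also: Cell-free human ACSS2 enzyme reaction with acetate, CoA and ATP, 90 min at 37 C, coupled to pyrophosphatase, phosphate release detected by Biomol Green absorbance at 620 nm.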

The target of this assay is ACSS2 (Homo sapiens, UniProt Q9NR19). The assay can be described thus: biochemical.
Sequence of ACSS2 (Q9NR19 whole entry): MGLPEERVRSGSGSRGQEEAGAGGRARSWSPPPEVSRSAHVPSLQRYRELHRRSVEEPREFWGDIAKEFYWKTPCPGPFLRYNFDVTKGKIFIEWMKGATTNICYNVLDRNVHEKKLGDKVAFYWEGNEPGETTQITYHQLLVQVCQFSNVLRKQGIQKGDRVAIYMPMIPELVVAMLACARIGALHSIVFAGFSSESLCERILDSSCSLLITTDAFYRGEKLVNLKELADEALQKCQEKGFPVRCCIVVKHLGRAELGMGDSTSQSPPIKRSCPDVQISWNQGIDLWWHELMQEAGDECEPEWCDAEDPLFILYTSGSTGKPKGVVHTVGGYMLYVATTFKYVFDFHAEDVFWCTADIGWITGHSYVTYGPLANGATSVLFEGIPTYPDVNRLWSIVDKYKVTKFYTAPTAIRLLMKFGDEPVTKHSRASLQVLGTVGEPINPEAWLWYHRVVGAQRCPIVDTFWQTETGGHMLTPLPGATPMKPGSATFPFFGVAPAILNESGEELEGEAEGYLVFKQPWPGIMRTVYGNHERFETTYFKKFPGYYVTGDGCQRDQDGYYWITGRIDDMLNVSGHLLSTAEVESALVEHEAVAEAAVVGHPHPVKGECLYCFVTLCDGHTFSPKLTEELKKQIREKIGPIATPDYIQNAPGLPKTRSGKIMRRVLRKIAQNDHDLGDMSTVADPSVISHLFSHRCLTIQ
Protocol: ACSS2 Cell-Free Activity Assay (Cell-Free IC50)
The assay is based on a coupling reaction with Pyrophosphatase: ACSS2 is converting ATP+CoA+Acetate=>AMP+pyrophosphate+Acetyl-CoA (Ac-CoA). Pyrophosphatase converts pyrophosphate, a product of the ACSS2 reaction, to phosphate which can be detected by measuring the absorbance at 620 nm after incubation with the Biomol green reagent (Enzo life Science, BML-AK111).
Cell-free IC50 Determination:
At the end of the reaction, Biomol Green was added for 30 minutes at RT and the activity was measured by reading the absorbance at 620 nm.
For the molecule `CCC(F)(F)c1cccc(NC(=O)C2C(=O)N(c3ccc(OC)c(-c4ccccc4)c3)N=C2C)c1` (stereo not drawn) [compound 368], the IC50 (as a rule, the concentration needed to halve the response being measured) lay within 0.01 to 6 nM.

Take `CC1=NN(c2ccncc2)C(=O)C1C(=O)Nc1cccc(-c2cnccn2)c1` (stereo not drawn) [compound 232]: the half-inhibitory concentration (IC50) fell in the range of 6 to 100 nM.

On to `CC1=NN(c2cc(Cc3ccccc3)cc(-c3ccccc3)c2)C(=O)C1C(=O)Nc1cccc(C(C)(F)F)c1` (stereo not drawn) [compound 387], for which the IC50 is 0.01 to 6 nM. The same measure for `COc1ccc(N2N=C(C)C(C(=O)Nc3cccc(C(C)(F)F)c3)C2=O)cc1-c1cnccn1` (stereo not drawn) [compound 433]: 0.01 to 6 nM; for `CC1=NN(c2ccc(OC(F)F)cc2)C(=O)C1C(=O)Nc1cccc(C2COC2)c1` (stereo not drawn) [compound 329]: 100 to 1000 nM; for `CCNC(c1cccc(NC(=O)C2C(=O)N(c3ccccc3)N=C2C)c1)C(F)(F)F` (stereo not drawn) [compound 176]: 1000 to 100000 nM. In the case of `COc1ccc(N2N=C(C)C(C(=O)Nc3cccc(C(C)(F)F)c3)C2=O)cc1-c1ccccc1` (stereo not drawn) [compound 452] it was 0.01 to 6 nM.

In the case of `CC1=NN(c2ccccc2)C(=O)C1C(=O)N[C@@H](C)C(=O)O` (stereo partly drawn) [compound 218, (2S)-2-(3-methyl-5-oxo-1-phenyl-4,5-dihydro-1H-pyrazole-4-carboxamido)propanoic acid], the IC50 was in the range of 1000 to 100000 nM.

Regarding `COc1ccc(N2N=C(C)C(C(=O)Nc3cccc(C(C)(F)F)c3)C2=O)c(F)c1` (stereo not drawn) [compound 451], the IC50 lay within 0.01 to 6 nM. `CC1=NN(c2ccc(OC(F)F)cc2)C(=O)C1C(=O)N(C)c1cc(C)cc(Cl)c1` (stereo not drawn) [compound 393]: the IC50 was in the range of 100 to 1000 nM.

`CC1=NN(c2ccc(OC(F)F)c(-c3cncnc3)c2)C(=O)C1C(=O)Nc1cccc(C(C)(F)F)c1` (stereo not drawn) [compound 449] came in with an IC50 of 0.01 to 6 nM. The same measure for `CC1=NN(c2cc(Cc3ccccc3Cl)cc(-c3ccccc3)c2)C(=O)C1C(=O)Nc1cccc(C(C)(F)F)c1` (stereo not drawn) [compound 333]: 6 to 100 nM; for `CC1=NN(c2ccccc2)C(=O)C1C(=O)Nc1ccc2c(c1)CCC2` (stereo not drawn) [compound 209, N-(2,3-dihydro-1H-inden-5-yl)-3-methyl-5-oxo-1-phenyl-4,5-dihydro-1H-pyrazole-4-carboxamide]: 100 to 1000 nM; for `CC(=O)NS(=O)(=O)c1cc(N2N=C(C)C(C(=O)Nc3cccc(C(C)(F)F)c3)C2=O)ccc1OC(F)(F)F` (stereo not drawn) [compound 294]: 6 to 100 nM. As for `COCc1cccc(NC(=O)C2C(=O)N(c3ccccc3)N=C2C)c1` (stereo not drawn) [compound 103, N-(3-(methoxymethyl)phenyl)-3-methyl-5-oxo-1-phenyl-4,5-dihydro-1H-pyrazole-4-carboxamide], the IC50 is 100 to 1000 nM and 6 to 100 nM. The same measure for `CC1=NN(c2ccccc2)C(=O)C1C(=O)Nc1cccc(C(C)(C)C)c1` (stereo not drawn) [compound 115, N-(3-(tert-butyl)phenyl)-3-methyl-5-oxo-1-phenyl-4,5-dihydro-1H-pyrazole-4-carboxamide]: 100 to 1000 nM. The same measure for `CC1=NN(c2ccc(OC(F)F)cc2)C(=O)C1C(=O)Nc1ccc2[nH]ccc2c1` (stereo not drawn) [compound 347]: 100 to 1000 nM; for `CC1=NN(c2ccc(Br)cc2)C(=O)C1C(=O)Nc1cccc(C(C)(F)F)c1` (stereo not drawn) [compound 422]: 0.01 to 6 nM.

`CC1=NN(c2ccccc2)C(=O)C1C(=O)Nc1ccc(O)cc1` (stereo not drawn) [compound 205, N-(4-hydroxyphenyl)-3-methyl-5-oxo-1-phenyl-4,5-dihydro-1H-pyrazole-4-carboxamide] registered an IC50 of 1000 to 100000 nM. On to `COc1ccc(N2N=C(C)C(C(=O)NCc3ccccc3)C2=O)cc1` (stereo not drawn) [compound 358], for which the IC50 lay within 100 to 1000 nM. In the case of `CC1=NN(c2ccccc2)C(=O)C1C(=O)Nc1ccc(S(=O)(=O)N(C)C)cc1` (stereo not drawn) [compound 105, N-(4-(N,N-dimethylsulfamoyl)phenyl)-3-methyl-5-oxo-1-phenyl-4,5-dihydro-1H-pyrazole-4-carboxamide] it was 1000 to 100000 nM; in that of `CC1=NN(c2cccc(C#CCNC(=O)CCCC(=O)Nc3ccc4c(c3)C(=O)N(C3CCC(=O)NC3=O)C4=O)c2)C(=O)C1C(=O)Nc1cccc(C(C)(F)F)c1` (stereo not drawn) [compound 382], 0.01 to 6 nM. In the case of `CC1=NN(c2ccc(C3CC3)cc2)C(=O)C1C(=O)Nc1cccc(C(C)(F)F)c1` (stereo not drawn) [compound 457] it was 0.01 to 6 nM; in that of `CC(=O)c1cccc(NC(=O)C2C(=O)N(c3cccc(C(=O)O)c3)N=C2C)c1` (stereo not drawn) [compound 123, 3-(4-((3-acetylphenyl)carbamoyl)-3-methyl-5-oxo-4,5-dihydro-1H-pyrazol-1-yl)benzoic acid], 100 to 1000 nM; in that of `CC1=NN(c2ccc(OC(F)F)c(-c3ncc(C)o3)c2)C(=O)C1C(=O)Nc1cccc(C(C)(F)F)c1` (stereo not drawn) [compound 415], 0.01 to 6 nM.

Molecule `CC(=O)NS(=O)(=O)c1cccc(N2N=C(C)C(C(=O)Nc3cccc(C(C)(F)F)c3)C2=O)c1` (stereo not drawn) [compound 293] returned a half-inhibitory concentration (IC50) of 6 to 100 nM. The same measure for `CCc1ccc(NC(=O)C2C(=O)N(c3ccccc3)N=C2C)s1` (stereo not drawn) [compound 260]: 100 to 1000 nM; for `CCOc1ccc(N2N=C(C)C(C(=O)Nc3cccc(CC)c3)C2=O)cc1` (stereo not drawn) [compound 134, 1-(4-ethoxyphenyl)-N-(3-ethylphenyl)-3-methyl-5-oxo-4,5-dihydro-1H-pyrazole-4-carboxamide]: 1000 to 100000 nM. In the case of `CCc1cccc(NC(=O)C2C(=O)N(c3ccccc3)N=C2C(F)(F)F)c1` (stereo not drawn) [compound 130, N-(3-ethylphenyl)-5-oxo-1-phenyl-3-(trifluoromethyl)-4,5-dihydro-1H-pyrazole-4-carboxamide] it was 1000 to 100000 nM; in that of `CC1=NN(c2ccncc2)C(=O)C1C(=O)Nc1ccccc1` (stereo not drawn) [compound 193, 3-methyl-5-oxo-N-phenyl-1-(pyridin-4-yl)-4,5-dihydro-1H-pyrazole-4-carboxamide], > 100000 nM; in that of `CCCc1cc(-c2cccnc2)cc(N2N=C(C)C(C(=O)Nc3cccc(C(C)(F)F)c3)C2=O)c1` (stereo not drawn) [compound 399], 0.01 to 6 nM. The same measure for `CC1=NN(c2cc(Br)cc(-c3ccccc3)c2)C(=O)C1C(=O)Nc1cccc(C(C)(F)F)c1` (stereo not drawn) [compound 389]: 0.01 to 6 nM.

With `COc1cc(Cl)cc(N(C)C(=O)C2C(=O)N(c3ccc(OC(F)F)cc3)N=C2C)c1` (stereo not drawn) [compound 392], the IC50 fell in the range of 100 to 1000 nM.

The molecule `CCOC(=O)c1cccc(NC(=O)C2C(=O)N(c3ccccc3)N=C2C)c1` (stereo not drawn) [compound 113, Ethyl 3-(3-methyl-5-oxo-1-phenyl-4,5-dihydro-1H-pyrazole-4-carboxamido)benzoate] returned an IC50 of 6 to 100 nM. The same measure for `CC1=NN(C2CCN(C)CC2)C(=O)C1C(=O)Nc1ccccc1` (stereo not drawn) [compound 221, 3-methyl-1-(1-methylpiperidin-4-yl)-5-oxo-N-phenyl-4,5-dihydro-1H-pyrazole-4-carboxamide]: > 100000 nM. In the case of `CC1=NN(c2cc(C)cc(-c3ncco3)c2)C(=O)C1C(=O)Nc1cccc(C(C)(F)F)c1` (stereo not drawn) [compound 420] it was 0.01 to 6 nM; in that of `CC1=NN(c2ccc(OC(F)F)c(-c3noc(C)n3)c2)C(=O)C1C(=O)Nc1cccc(C(C)(F)F)c1` (stereo not drawn) [compound 407], 0.01 to 6 nM.

For `CC1=NN(c2cc(Br)cc(Cc3ccc(Cl)cc3)c2)C(=O)C1C(=O)Nc1cccc(C(C)(F)F)c1` (stereo not drawn) [compound 388], the IC50 was in the range of 0.01 to 6 nM. In the case of `CC1=NN(c2cccc(S(=O)(=O)N(C)C)c2)C(=O)C1C(=O)Nc1cccc(-c2ncc[nH]2)c1` (stereo not drawn) [compound 277] it was 6 to 100 nM.

Turning to `CCC(C)Oc1ccc(N2N=C(C)C(C(=O)Nc3cccc(C(C)(F)F)c3)C2=O)cc1` (stereo not drawn) [compound 444], the IC50 was in the range of 0.01 to 6 nM. In the case of `CCc1csc(NC(=O)C2C(=O)N(c3ccccc3)N=C2C)c1` (stereo not drawn) [compound 285] it was 100 to 1000 nM. The same measure for `CCc1cccc(NC(=O)C2C(=O)N(c3ccc(N)cc3)N=C2C)c1` (stereo not drawn) [compound 154, 1-(4-aminophenyl)-N-(3-ethylphenyl)-3-methyl-5-oxo-4,5-dihydro-1H-pyrazole-4-carboxamide]: 100 to 1000 nM.

In the case of `CC1=NN(c2ccccc2)C(=O)C1C(=O)Nc1cccc(-c2ccccc2)c1` (stereo not drawn) [compound 102, N-([1,1′-biphenyl]-3-yl)-3-methyl-5-oxo-1-phenyl-4,5-dihydro-1H-pyrazole-4-carboxamide], the IC50 is 100 to 1000 nM.

`CC1=NN(c2ccccc2)C(=O)C1C(=O)Nc1cccc(-c2cncnc2)c1` (stereo not drawn) [compound 132, 3-methyl-5-oxo-1-phenyl-N-(3-(pyrimidin-5-yl)phenyl)-4,5-dihydro-1H-pyrazole-4-carboxamide] showed an IC50 of 100 to 1000 nM. In the case of `CC1=NN(c2ccc3cc[nH]c3c2)C(=O)C1C(=O)Nc1cccc(C(C)(F)F)c1` (stereo not drawn) [compound 410] it was 0.01 to 6 nM.

`CC1=NN(c2ccc(S(=O)(=O)N(C)C)cc2)C(=O)C1C(=O)Nc1cccc(-c2ncc[nH]2)c1` (stereo not drawn) [compound 173, N-(3-(1H-imidazol-2-yl)phenyl)-1-(4-(N,N-dimethylsulfamoyl)phenyl)-3-methyl-5-oxo-4,5-dihydro-1H-pyrazole-4-carboxamide] had an IC50 of 100 to 1000 nM. The same measure for `CCOC(=O)c1cc(NC(=O)C2C(=O)N(c3ccccc3)N=C2C)ccn1` (stereo not drawn) [compound 135, ethyl 4-(3-methyl-5-oxo-1-phenyl-4,5-dihydro-1H-pyrazole-4-carboxamido)picolinate]: 100 to 1000 nM.

The molecule `CC1=NN(c2ccc(OC(F)F)cc2)C(=O)C1C(=O)Nc1cccc(C(F)(F)C(C)C)c1` (stereo not drawn) [compound 362] registered a concentration for half-maximal inhibition (IC50) of 6 to 100 nM. In the case of `CCC(F)(F)c1cccc(NC(=O)C2C(=O)N(c3ccc4ccn(C(C)C)c4c3)N=C2C)c1` (stereo not drawn) [compound 360] it was 0.01 to 6 nM. The same measure for `CC1=NN(c2cc(-c3ccccc3)cc(-c3ccccc3)c2)C(=O)C1C(=O)Nc1cccc(C(C)(F)F)c1` (stereo not drawn) [compound 401]: 6 to 100 nM. In the case of `Cc1c(C(=O)Nc2ccccc2)c(=O)n(-c2ccccc2)n1C` [compound 190, 1,5-dimethyl-3-oxo-N,2-diphenyl-2,3-dihydro-1H-pyrazole-4-carboxamide] it was > 100000 nM; in that of `CC1=NN(c2cc(Cc3ccc(OCc4ccccc4)cc3)cc(-c3cccnc3)c2)C(=O)C1C(=O)Nc1cccc(C(C)(F)F)c1` (stereo not drawn) [compound 373], 100 to 1000 nM. As for `COc1ccc(N2N=C(C)C(C(=O)Nc3cccc(C(C)(F)F)c3)C2=O)cc1-c1ncc(C)o1` (stereo not drawn) [compound 352], the IC50 was 0.01 to 6 nM. In the case of `CC1=NN(c2cc(Cc3ccccc3OCc3ccccc3)cc(-c3cccnc3)c2)C(=O)C1C(=O)Nc1cccc(C(C)(F)F)c1` (stereo not drawn) [compound 365] it was 6 to 100 nM.
